Results: US20250101026A1, “Functionalized Allopurinol Derivatives for Treatment of Alzheimer’s Disease” (BOARD OF REGENTS OF THE UNIVERSITY OF NEBRASKA, priority 2022, published 2025)
“Also recorded” adds a separate entry of the source. Like-named read-outs stand apart in the source and are kept apart here.

Tests used:
SH-SY5Y cells [1] = test: Aβ-induced toxicity in SH-SY5Y cells, lactate dehydrogenase (LDH) release assay; assay type: cell-based, human; conditions: 1 μM, pretreated 24 hrs, then 25 μM Aβ 48 hrs
Procedure: (§1) Cell Culture. The cell line SH-SY5Y was cultured in DMEM/F12 media supplemented with 10% fetal bovine serum, 1% penicillin-streptomycin and maintained as monolayer cultures in a humidified atmosphere containing 5% CO2 at 37° C.^42 All cell lines were authenticated via short tandem repeat analysis and tested for mycoplasma using the a commercial mycoplasma detection kit as per the manufacturer's instructions, showing no contamination. Where indicated, cells were also cultured in DMEM/low glucose media. All compounds were diluted to 20 mM solution in DMSO and were serially diluted in cell culture media for cell treatments to a final concentration range of 0.01 to 100 μM, maintaining the final DMSO concentration at less than 1%. Positive control compound HupA was serially diluted in a similar fashion as the synthesized compounds.
(§2) Amyloid Preparation. The peptide Aβ1-42, referred to as “Aβ”, was obtained from a commercial source. The oligomers of Aβ were prepared using an established method,^43 Aβ peptide was resuspended in 0.5 mM NaOH at a concentration of […] and stored at −80° C. For use in cell cultures, the stock solution was incubated at 37° C. for 5-7 days. Before use, the peptide was diluted to 25 μM in DMEM/low glucose media.
Cell Viability Assays. […] Cell viability was measured after 48 hours using commercial MTS assay or lactate dehydrogenase (LDH) cytotoxicity assay. […]

SH-SY5Y cells [2] = test: Mitochondrial Stress Test in Aβ-treated SH-SY5Y cells (extracellular flux analyzer); assay type: cell-based, human
Procedure: Mitochondrial Stress Test. […] After 48 hours, media was replaced with assay medium consisting of XF Base Medium supplemented with 10 mM glucose, 10 mM pyruvic acid, and 1 mM L-glutamine. Subsequently, the analysis of mitochondrial oxygen consumption rate (OCR) was performed in a flux analyzer. The OCR values were obtained both during baseline (prior to addition of any Mito Stress Test substances), and after the addition of […], 2 μM FCCP and 0.5 μM rotenone+0.5 μM antimycin A, respectively. Prior to analysis, data were corrected by withdrawing non-mitochondrial respiration (measured after the injection of rotenone and antimycin A) from all measured OCR values. After the experiment, cells were lysed using RIPA buffer and protease inhibitor cocktail, then proteins were quantified via BCA assay. Results were normalized to protein concentration of each well to its OCR value.

Aβ-ABAD PPI = molecular target: T1, Aβ-ABAD PPI (Homo sapiens, UniProt Q99714); test: Estradiol ELISA assay: rescue of Aβ-induced reduction of estradiol levels in SH-SY5Y cells; assay type: cell-based; conditions: compounds 24 hours then Aβ 72 hours
T1 construct: wildtype human SH-SY5Y cell lines, which are known to express ABAD; endogenous in cells; host or cells: SH-SY5Y
T1 sequence (Q99714 2-261 limits assumed): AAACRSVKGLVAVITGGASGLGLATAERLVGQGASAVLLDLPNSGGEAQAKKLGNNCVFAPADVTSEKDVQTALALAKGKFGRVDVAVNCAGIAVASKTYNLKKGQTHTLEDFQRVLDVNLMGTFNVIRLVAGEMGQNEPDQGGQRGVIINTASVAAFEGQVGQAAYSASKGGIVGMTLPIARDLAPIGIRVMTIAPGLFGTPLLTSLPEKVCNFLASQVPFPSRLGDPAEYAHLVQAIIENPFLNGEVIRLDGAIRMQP
Procedure: as §1, §2
Estradiol ELISA assay. SH-SY5Y cells were treated with compounds (24 hours), followed by Aβ (72 hours) in a similar fashion to that employed in the cell viability assays, the cell culture medium was collected, and cells were lysed using RIPA buffer and protease inhibitor cocktail, then proteins were quantified via BCA assay. An estradiol assay was performed. In brief, the plate was loaded with samples, along with the estradiol tracer and the specific antiserum to estradiol and incubated for one hour at room temperature. After five washing steps, Ellman's Reagent was added, and the plate developed for 60 minutes with gentle shaking at room temperature. The calculated estradiol concentration was normalized to the total protein content of the samples.
Statistical Analyses. The IC50 values of each compound were acquired from a single experiment with each inhibitor concentration run in triplicate and the statistical significance was calculated using the Student t test, or a one-way or two-way ANOVA. A P value of <0.05 was considered statistically significant. IC50 values were calculated.
To determine the effect of Aβ on estradiol production, and ABAD's role in this process, wildtype human SH-SY5Y cell lines, which are known to express ABAD, were incubated for 72 hours with Aβ.^20 Estradiol levels in the cell lysate were measured with a commercial ELISA-based estradiol assay. […] To determine if AG18051 treatment affects Aβ-induced reduction of estradiol levels, 0.1 or 1 μM AG18051 was preincubated in SH-SY5Y cells for 24 hours prior to Aβ exposure. […] AG18051 at 1 μM protected SH-SY5Y cells from Aβ-induced reduction of estradiol production to a greater significance than HupA. This confirms literature reports that AG18051 is neuroprotective and that it exerts this effect by ameliorating Aβ-induced reduction of estradiol production by ABAD.^20, 23
This assay methodology allows direct screening of compound activity in the presence of Aβ and provides direct evidence of the ability of compounds to rescue Aβ-induced reduction of estradiol production by ABAD. To measure the effect of AG18051 alone in SH-SY5Y cell lines, a 0.01-100 μM dose-response range was tested, and their effect on estradiol levels (FIG. 2B). […] To evaluate the effect of the increase of AG18051 dose in maintaining estradiol levels reduced by Aβ, AG18051 was tested in increasing concentrations in the presence of Aβ (FIG. 2B).

SH-SY5Y cells [3] = test: Cell viability of SH-SY5Y cells with compound alone; assay type: cell-based, human; conditions: up to 100 μM
Procedure: as §1
Cell Viability Assays. The SH-SY5Y cells were plated at a density of 50,000 cells/well in 96-well plates and allowed to adapt overnight in a humidified atmosphere containing 5% CO2 at 37° C. The cells were pretreated (24 hours) with the test compound and exchanged to a serum-free DMEM/low glucose media, prior to incubation with 25 μM of Aβ. Cell viability was measured after 48 hours using commercial MTS assay or lactate dehydrogenase (LDH) cytotoxicity assay. […]

IC50 (Aβ-ABAD PPI; amelioration of Aβ-induced reduction of estradiol levels, read-out: IC50 (estradiol assay)): 740 nM
IC50 (Aβ-ABAD PPI; read-out: IC50 (estradiol assay), unit inferred): 738 ± 105 nM
Compound: O=C(C(c1ccccc1)n1cnc2[nH]ncc2c1=S)N1CCC(O)CC1 (stereo not shown) [Compound 14b, 1-(4-hydroxypiperidin-1-yl)-2-phenyl-2-(4-thioxo-1,4-dihydro-5H-pyrazolo[3,4-d]pyrimidin-5-yl)ethan-1-one]
LDH release compared with Aβ treatment alone (SH-SY5Y cells [1]): significantly reducing LDH release; also recorded: significantly rescued
basal respiration: restored share of the cell respiration reduced by Aβ (SH-SY5Y cells [2]; 1 μM pretreatment 24 hrs, then 25 μM Aβ 48 hrs): 46%
proton leak, ATP production and maximal respiration: restoration of mitochondrial function lost by Aβ (SH-SY5Y cells [2]; 1 μM pretreatment, then 25 μM Aβ): trend to restore; also recorded: trend to rescue
basal respiration, rescue of Aβ-mediated dysfunction (SH-SY5Y cells [2]; SH-SY5Y cells): significantly rescuing
toxicity to reduce cell viability (SH-SY5Y cells [3]): no toxicity; also recorded: non-toxic
